The first experiment deals with GST-Bcl-2 (Homo sapiens (Human), UniProt P10415). Nature of the experiment: Time Resolved-Fluorescence Resonance Energy Transfer (TR-FRET) Bcl-2 binding assay.
Sequence of GST-Bcl-2 (P10415 whole entry): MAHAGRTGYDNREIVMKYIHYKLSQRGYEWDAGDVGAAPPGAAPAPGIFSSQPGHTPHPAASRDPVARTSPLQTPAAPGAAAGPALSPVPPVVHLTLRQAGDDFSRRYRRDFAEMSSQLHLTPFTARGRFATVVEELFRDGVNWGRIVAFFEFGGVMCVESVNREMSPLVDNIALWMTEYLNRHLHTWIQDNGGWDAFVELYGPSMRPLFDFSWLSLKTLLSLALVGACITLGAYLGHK
Conditions: not given
The gist of the method: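 Ki values derived from TR-FRET displacement of F-Bak peptide from GST-Bcl-2, detected with Tb-labelled anti-GST antibody (ex 340, em 520/495 nm). Compound dilution series started at 50 μM (2× starting concentration); room-temperature incubation 3 hours.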
A general note: In TR-FRET formats the signal depends on donor and acceptor labels being close together.
As a reminder, the Ki is a dissociation constant, usually derived from enzyme kinetics or from competition with a known ligand. Low readings indicate a stronger hold on the target, high ones a looser hold on the target. `CO[C@H]1CC[C@H](CNc2ccc(S(=O)(=O)NC(=O)c3ccc(N4CCN(CC5=C(c6ccc(Cl)cc6)CC(C)(C)CC5)CC4)cc3Oc3cnc(N)c(Br)c3)cc2[N+](=O)[O-])CC1` [Example 367, Trans-2-[(6-amino-5-bromopyridin-3-yl)oxy]-4-(4-{[2-(4-chlorophenyl)-4,4-dimethylcyclohex-1-en-1-yl]methyl}piperazin-1-yl)-N-[(4-{[(4-methoxycyclohexyl)methyl]amino}-3-nitrophenyl)sulfonyl]benzamide] returned a Ki of 0.012 nM.

The experiment is the same for the next values; noted with them: GST-Bcl-2 1 nM, F-Bak peptide probe 100 nM, Tb-anti-GST antibody 1 nM; Ki by Wang's equation.
The compound `CN1CCC(Nc2ccc(S(=O)(=O)NC(=O)c3ccc(N4CCN(CC5=C(c6ccc(Cl)cc6)CC(C)(C)C5)CC4)cc3Oc3ccccc3Cl)cc2[N+](=O)[O-])CC1` [Example 62, 2-(2-chlorophenoxy)-4-(4-((2-(4-chlorophenyl)-4,4-dimethylcyclopent-1-en-1-yl)methyl)piperazin-1-yl)-N-((4-((1-methylpiperidin-4-yl)amino)-3-nitrophenyl)sulfonyl)benzamide] returned an inhibitory constant (Ki) of 0.227 nM.

`CN(C)CCc1ccc(Oc2cc(N3CCN(Cc4ccccc4-c4ccc(Cl)cc4)CC3)ccc2C(=O)NS(=O)(=O)c2ccc(NCC3CCOCC3)c([N+](=O)[O-])c2)cc1` [Example 87, 4-(4-((4′-chloro-1,1′-biphenyl-2-yl)methyl)piperazin-1-yl)-2-(4-(2-(dimethylamino)ethyl)phenoxy)-N-((3-nitro-4-((tetrahydro-2H-pyran-4-ylmethyl)amino)phenyl)sulfonyl)benzamide]: the inhibition constant Ki was found to be 264 nM.

For `O=C(NS(=O)(=O)c1ccc(NCC2CCOCC2)c([N+](=O)[O-])c1)c1ccc(N2CCN(Cc3ccccc3-c3ccc(Cl)cc3)CC2)cc1Oc1ccc(Cl)cc1` [Example 7, 4-(4-((4′-chloro-1,1′-biphenyl-2-yl)methyl)piperazin-1-yl)-2-(4-chlorophenoxy)-N-((3-nitro-4-((tetrahydro-2H-pyran-4-ylmethyl)amino)phenyl)sulfonyl)benzamide], the affinity corresponds to a Ki of 2.59 nM.

Compound `CC1(C)CCC(CN2CCN(c3ccc(C(=O)NS(=O)(=O)c4ccc(NC5CCN(C6CCOCC6)CC5)c([N+](=O)[O-])c4)c(-c4ccc(N)nc4)c3)CC2)=C(c2ccc(Cl)cc2)C1` [Example 255, 2-(6-aminopyridin-3-yl)-4-(4-{[2-(4-chlorophenyl)-4,4-dimethylcyclohex-1-en-1-yl]methyl}piperazin-1-yl)-N-({3-nitro-4-[(1-tetrahydro-2H-pyran-4-ylpiperidin-4-yl)amino]phenyl}sulfonyl)benzamide] returned a Ki of 7.01 nM.

The compound `CN1CCC(O)(CNc2ccc(S(=O)(=O)NC(=O)c3ccc(N4CCN(CC5=C(c6ccc(Cl)cc6)CC(C)(C)CC5)CC4)cc3Oc3ccccc3Cl)cc2[N+](=O)[O-])CC1` [Example 192, 2-(2-chlorophenoxy)-4-(4-{[2-(4-chlorophenyl)-4,4-dimethylcyclohex-1-en-1-yl]methyl}piperazin-1-yl)-N-[(4-{[(4-hydroxy-1-methylpiperidin-4-yl)methyl]amino}-3-nitrophenyl)sulfonyl]benzamide] showed a Ki of 0.024 nM.

For `CN1CCN(Nc2ccc(S(=O)(=O)NC(=O)c3ccc(N4CCN(CC5=C(c6ccc(Cl)cc6)CC(C)(C)CC5)CC4)cc3Oc3cnc(N)c(Cl)c3)cc2[N+](=O)[O-])CC1` [Example 343, 2-[(6-amino-5-chloropyridin-3-yl)oxy]-4-(4-{[2-(4-chlorophenyl)-4,4-dimethylcyclohex-1-en-1-yl]methyl}piperazin-1-yl)-N-({4-[(4-methylpiperazin-1-yl)amino]-3-nitrophenyl}sulfonyl)benzamide], the Ki turned out to be 0.009 nM.

With `CN(C)C(=O)COc1cccc(Oc2cc(N3CCN(Cc4ccccc4-c4ccc(Cl)cc4)CC3)ccc2C(=O)NS(=O)(=O)c2ccc(NCC3CCOCC3)c([N+](=O)[O-])c2)c1` [Example 105, 4-(4-((4′-chloro-1,1′-biphenyl-2-yl)methyl)piperazin-1-yl)-2-(3-(2-(dimethylamino)-2-oxoethoxy)phenoxy)-N-((3-nitro-4-((tetrahydro-2H-pyran-4-ylmethyl)amino)phenyl)sulfonyl)benzamide], the Ki came out at 3.57 nM.

The compound `CN1C(C)(C)CC(Nc2ccc(S(=O)(=O)NC(=O)c3ccc(N4CCN(CC5=C(c6ccc(Cl)cc6)CC(C)(C)CC5)CC4)cc3Oc3ccccc3Cl)cc2[N+](=O)[O-])CC1(C)C` [Example 48, 2-(2-chlorophenoxy)-4-(4-((2-(4-chlorophenyl)-4,4-dimethylcyclohex-1-en-1-yl)methyl)piperazin-1-yl)-N-((3-nitro-4-((1,2,2,6,6-pentamethylpiperidin-4-yl)amino)phenyl)sulfonyl)benzamide] registered a Ki of 0.053 nM.

In turn, `CC1(C)CCC(CN2CCN(c3ccc(C(=O)NS(=O)(=O)c4ccc(NCCCN5CCOCC5)c([N+](=O)[O-])c4)c(Oc4cccc(F)c4F)c3)CC2)=C(c2ccc(Cl)cc2)C1` [Example 51, 4-(4-((2-(4-chlorophenyl)-4,4-dimethylcyclohex-1-en-1-yl)methyl)piperazin-1-yl)-2-(2,3-difluorophenoxy)-N-((4-((3-morpholin-4-ylpropyl)amino)-3-nitrophenyl)sulfonyl)benzamide] had an inhibitory constant (Ki) of 0.066 nM.

With `O=C(NS(=O)(=O)c1ccc(NCC2CCOCC2)c([N+](=O)[O-])c1)c1ccc(N2CCN(Cc3ccccc3-c3ccc(Cl)cc3)CC2)cc1Oc1cccc(Cl)c1` [Example 6, 4-(4-((4′-chloro-1,1′-biphenyl-2-yl)methyl)piperazin-1-yl)-2-(3-chlorophenoxy)-N-((3-nitro-4-((tetrahydro-2H-pyran-4-ylmethyl)amino)phenyl)sulfonyl)benzamide], the Ki turned out to be 0.787 nM.

Regarding `CC1(C)CCC(CN2CCN(c3ccc(C(=O)NS(=O)(=O)c4ccc(NCCCN5CCOCC5)c([N+](=O)[O-])c4)c(Oc4cccc(Cl)c4)c3)CC2)=C(c2ccc(Cl)cc2)C1` [Example 128, 2-(3-chlorophenoxy)-4-(4-{[2-(4-chlorophenyl)-4,4-dimethylcyclohex-1-en-1-yl]methyl}piperazin-1-yl)-N-({4-[(3-morpholin-4-ylpropyl)amino]-3-nitrophenyl}sulfonyl)benzamide], the affinity, expressed as Ki, was 0.064 nM.

`CC1(C)CCC(CN2CCN(c3ccc(C(=O)NS(=O)(=O)c4cnc(OC[C@@H]5CCN(C(CF)CF)C5)c(Cl)c4)c(Oc4cnc(N)c(Cl)c4)c3)CC2)=C(c2ccc(Cl)cc2)C1` [Example 399, 2-[(6-amino-5-chloropyridin-3-yl)oxy]-N-{[5-chloro-6-({(3R)-1-[2-fluoro-1-(fluoromethyl)ethyl]pyrrolidin-3-yl}methoxy)pyridin-3-yl]sulfonyl}-4-(4-{[2-(4-chlorophenyl)-4,4-dimethylcyclohex-1-en-1-yl]methyl}piperazin-1-yl)benzamide] gave an inhibitory constant (Ki) of under 0.01 nM.

`CN(C)Cc1ccccc1Oc1cc(N2CCN(Cc3ccccc3-c3ccc(Cl)cc3)CC2)ccc1C(=O)NS(=O)(=O)c1ccc(NCC2CCOCC2)c([N+](=O)[O-])c1` [Example 31, 4-(4-((4′-chloro-1,1′-biphenyl-2-yl)methyl)piperazin-1-yl)-2-(2-((dimethylamino)methyl)phenoxy)-N-((3-nitro-4-((tetrahydro-2H-pyran-4-ylmethyl)amino)phenyl)sulfonyl)benzamide] returned a Ki of 2.01 nM.

`CC1(C)CCC(CN2CCN(c3ccc(C(=O)NS(=O)(=O)c4ccc(NC5CCN(CCCc6ccccc6)CC5)c([N+](=O)[O-])c4)c(Oc4cccc(Cl)c4)c3)CC2)=C(c2ccc(Cl)cc2)C1` [Example 172, 2-(3-chlorophenoxy)-4-(4-{[2-(4-chlorophenyl)-4,4-dimethylcyclohex-1-en-1-yl]methyl}piperazin-1-yl)-N-[(3-nitro-4-{[1-(3-phenylpropyl)piperidin-4-yl]amino}phenyl)sulfonyl]benzamide]: the Ki was found to be 0.549 nM.

The compound `CC1(C)CCC(CN2CCN(c3ccc(C(=O)NS(=O)(=O)c4ccc(NC5CCN(CCF)CC5)c([N+](=O)[O-])c4)c(Oc4cccc(F)c4F)c3)CC2)=C(c2ccc(Cl)cc2)C1` [Example 140, 4-(4-{[2-(4-chlorophenyl)-4,4-dimethylcyclohex-1-en-1-yl]methyl}piperazin-1-yl)-2-(2,3-difluorophenoxy)-N-[(4-{[1-(2-fluoroethyl)piperidin-4-yl]amino}-3-nitrophenyl)sulfonyl]benzamide] gave an inhibitory constant (Ki) of 0.223 nM.

As for `Cc1c[nH]c2cccc(Oc3cc(N4CCN(CC5=C(c6ccc(Cl)cc6)CC(C)(C)CC5)CC4)ccc3C(=O)NS(=O)(=O)c3ccc(NCCCN4CCOCC4)c([N+](=O)[O-])c3)c12` [Example 63, 4-(4-((2-(4-chlorophenyl)-4,4-dimethylcyclohex-1-en-1-yl)methyl)piperazin-1-yl)-2-((3-methyl-1H-indol-4-yl)oxy)-N-((4-((3-morpholin-4-ylpropyl)amino)-3-nitrophenyl)sulfonyl)benzamide], the affinity, expressed as Ki, was 0.438 nM.

The compound `CN1CCC(Nc2ccc(S(=O)(=O)NC(=O)c3ccc(N4CCN(CC5=C(c6ccc(Cl)cc6)CC(C)(C)CC5)CC4)cc3Oc3cc4cc[nH]c4cc3F)cc2[N+](=O)[O-])CC1` [Example 154, 4-(4-{[2-(4-chlorophenyl)-4,4-dimethylcyclohex-1-en-1-yl]methyl}piperazin-1-yl)-2-[(6-fluoro-1H-indol-5-yl)oxy]-N-({4-[(1-methylpiperidin-4-yl)amino]-3-nitrophenyl}sulfonyl)benzamide] returned an inhibition constant (Ki) of 0.012 nM.

`Nc1cccc(Oc2cc(N3CCN(Cc4ccccc4-c4ccc(Cl)cc4)CC3)ccc2C(=O)NS(=O)(=O)c2ccc(NCC3CCOCC3)c([N+](=O)[O-])c2)c1` [Example 19, 2-(3-aminophenoxy)-4-(4-((4′-chloro-1,1′-biphenyl-2-yl)methyl)piperazin-1-yl)-N-((3-nitro-4-((tetrahydro-2H-pyran-4-ylmethyl)amino)phenyl)sulfonyl)benzamide] came in with a Ki of 1.68 nM.

In the case of `Cc1nc(C)c(-c2cccc(Oc3cc(N4CCN(Cc5ccccc5-c5ccc(Cl)cc5)CC4)ccc3C(=O)NS(=O)(=O)c3ccc(NCCCN4CCOCC4)c([N+](=O)[O-])c3)c2)s1` [Example 33, 4-(4-((4′-chloro-1,1′-biphenyl-2-yl)methyl)piperazin-1-yl)-2-(3-(2,4-dimethyl-1,3-thiazol-5-yl)phenoxy)-N-((4-((3-morpholin-4-ylpropyl)amino)-3-nitrophenyl)sulfonyl)benzamide], the affinity, expressed as Ki, was 7.17 nM.

For the origin of these results see patent publication US8952157B2, “Apoptosis-inducing agents for the treatment of cancer and immune and autoimmune diseases” (AbbVie Inc., priority 2008, dated 2015).
